Measurements as given in patent US20200399222A1, “PICOLINAMIDES AS FUNGICIDES” (Dow AgroSciences LLC, priority 2018, published 2020).
Like-named read-outs stand apart in the source and are kept apart here.

Key:
[1] = test system: Puccinia triticina; experiment: Wheat brown rust (PUCCRT) disease control on wheat seedlings; type: in vivo; conditions: High volume application, 100 ppm
Experimental: Technical grades of materials were dissolved in acetone, which were then mixed with nine volumes of water containing 110 ppm Triton X-100. The fungicide solutions were applied onto wheat seedlings using an automated booth sprayer to run-off. All sprayed plants were allowed to air dry prior to further handling. All fungicides were evaluated using the aforementioned method for their activity vs. all target diseases, unless stated otherwise. Wheat leaf blotch and brown rust activity were also evaluated using track spray applications, in which case the fungicides were formulated as EC formulations, containing 0.1% Trycol 5941 in the spray solutions. Example B: Evaluation of Fungicidal Activity: Wheat Brown Rust (Puccinia triticina; Synonym: Puccinia recondita f. sp. tritici; Bayer Code PUCCRT) Wheat plants (variety Yuma) were grown from seed in a greenhouse in 50% mineral soil/50% soil-less Metro mix until the first leaf was fully emerged, with 7-10 seedlings per pot. These plants were inoculated with an aqueous spore suspension of Puccinia triticina either prior to or after fungicide treatments. After inoculation the plants were kept in a dark dew room at 22° C. with 100% relative humidity overnight to permit spores to germinate and infect the leaf. The plants were then transferred to a greenhouse set at 24° C. for disease to develop. Fungicide formulation, application and disease assessment followed the procedures as described in the Example A.

[2] = test system: Zymoseptoria tritici; experiment: Leaf blotch of wheat (SEPTTR) disease control on wheat seedlings; type: in vivo; conditions: High volume application, 100 ppm
Experimental: Example A: Evaluation of Fungicidal Activity: Leaf Blotch of Wheat (Zymoseptoria tritici; Bayer Code […]) Technical grades of materials were dissolved in acetone, which were then mixed with nine volumes of water containing 110 ppm Triton X-100. The fungicide solutions were applied onto wheat seedlings using an automated booth sprayer to run-off. All sprayed plants were allowed to air dry prior to further handling. All fungicides were evaluated using the aforementioned method for their activity vs. all target diseases, unless stated otherwise. Wheat leaf blotch and brown rust activity were also evaluated using track spray applications, in which case the fungicides were formulated as EC formulations, containing 0.1% Trycol 5941 in the spray solutions. Wheat plants (variety Yuma) were grown from seed in a greenhouse in 50% mineral soil/50% soil-less Metro mix until the first leaf was fully emerged, with 7-10 seedlings per pot. These plants were inoculated with an aqueous spore suspension of Zymoseptoria tritici either prior to or after fungicide treatments. After inoculation the plants were kept in 100% relative humidity (one day in a dark dew chamber followed by two to three days in a lighted dew chamber at 20° C.) to permit spores to germinate and infect the leaf. The plants were then transferred to a greenhouse set at 20° C. for disease to develop. When disease symptoms were fully expressed on the 1st leaves of untreated plants, infection levels were assessed on a scale of 0 to 100 percent disease severity. Percent disease control was calculated using the ratio of disease severity on treated plants relative to untreated plants.

[3] = 24 h, 1 Day Protectant, read-out: PUCCRT disease control rating, 1DP
[4] = 72 h, 3 Day Curative, read-out: PUCCRT disease control rating, 3DC
[5] = 24 h, 1 Day Protectant, read-out: SEPTTR disease control rating, 1DP
[6] = 72 h, 3 Day Curative, read-out: SEPTTR disease control rating, 3DC

| Structure (SMILES) | pest or weed control at 100 ppm [1, 3] [%] | pest or weed control at 100 ppm [1, 4] [%] | pest or weed control at 100 ppm [2, 5] [%] | pest or weed control at 100 ppm [2, 6] [%] |
| --- | --- | --- | --- | --- |
| COc1ccc([C@H](C)[C@H](C)OC(=O)CNC(=O)c2nccc(OC)c2O)c(C)c1 [Example 122] | > 80 | > 80 | < 80 | < 80 |
| COc1ccnc(C(=O)NCC(=O)O[C@@H](C)[C@H](C)c2ccccc2C)c1O [Example 120] | < 80 | < 80 | < 0 | < 80 |
| COc1ccnc(C(=O)NCC(=O)O[C@H](C)[C@H](C)c2ccc(F)cc2C)c1O [Example 123] | > 80 | < 80 | < 0 | < 80 |
| COc1ccnc(C(=O)NCC(=O)O[C@H](C)[C@@H](C)c2ccccc2C)c1O [Example 125] | < 80 | < 0 | < 0 | < 80 |
| COc1ccnc(C(=O)N[C@@H](C)C(=O)O[C@H](C)[C@H](C)c2ccc(C)cc2C)c1O [Example 117] | < 80 | < 80 | < 80 | < 80 |
| COc1ccc([C@H](C)[C@H](C)OC(=O)[C@@H](NC(=O)c2nccc(OC)c2O)C(C)C)c(C)c1 [Example 142] | > 80 | > 80 | > 80 | < 80 |
| COc1ccnc(C(=O)N[C@@H](C)C(=O)O[C@H](C)[C@H](C)c2ccccc2C(F)(F)F)c1O [Example 161] | < 0 | < 0 | < 80 | < 80 |
| COc1ccc([C@@H](C)[C@@H](C)OC(=O)[C@@H](C)NC(=O)c2nccc(OC)c2O)c(C)c1 [Example 157] | < 80 | < 0 | < 80 | < 80 |
| COc1ccnc(C(=O)N[C@H](C(=O)O[C@H](C)[C@H](C)c2ccc(F)cc2)C(C)C)c1O [Example 146] | > 80 | < 80 | > 80 | < 80 |
| COc1ccc([C@@H](C)[C@@H](C)OC(=O)CNC(=O)c2nccc(OC)c2O)c(C)c1 [Example 127] | < 80 | < 80 | < 0 | < 80 |
| COc1ccnc(C(=O)N[C@H](C)C(=O)O[C@@H](C)[C@@H](C)c2ccc(F)cc2)c1O [Example 151] | < 80 | < 0 | < 80 | < 80 |
| COc1ccnc(C(=O)N[C@@H](C)C(=O)O[C@@H](C)[C@H](C)c2ccc(F)cc2C)c1O [Example 129] | > 80 | < 80 | < 80 | < 80 |
| COc1ccnc(C(=O)N[C@@H](C)C(=O)OC(C)C(C)c2c(C)cc(F)cc2C)c1O (some centres unmarked) [Example 165] | > 80 | > 80 | > 80 | > 80 |
| COc1ccnc(C(=O)N[C@@H](C)C(=O)O[C@H](C)[C@H](C)c2ccc(F)cc2)c1O [Example 136] | > 80 | < 80 | < 80 | < 80 |
| COc1ccnc(C(=O)N[C@H](C(=O)O[C@H](C)[C@@H](C)c2ccc(F)cc2C)C(C)C)c1O [Example 144] | < 0 | < 80 | < 80 | < 80 |
| COc1ccc([C@@H](C)[C@@H](C)OC(=O)[C@H](C)NC(=O)c2nccc(OC)c2O)c(C)c1 [Example 137] | > 80 | < 80 | < 80 | < 80 |

| Structure (SMILES) | pest or weed control at 100 ppm [1, 3] [%] | pest or weed control at 100 ppm [1, 4] [%] | pest or weed control at 100 ppm [2, 5] [%] | pest or weed control at 100 ppm [2, 6] [%] |
| --- | --- | --- | --- | --- |
| COc1ccnc(C(=O)N[C@@H](C)C(=O)O[C@@H](C)[C@@H](C)C2CCCC2)c1O [Example 160] | < 80 | > 80 | < 80 | < 80 |
| COc1ccnc(C(=O)N[C@@H](C)C(=O)O[C@@H](C)[C@@H](C)c2ccc(C)cc2C)c1O [Example 116] | > 80 | > 80 | < 80 | > 80 |
| COc1ccnc(C(=O)NCC(=O)O[C@@H](C)[C@@H](C)c2ccc(F)cc2)c1O [Example 121] | > 80 | > 80 | < 0 | < 80 |
| COc1ccnc(C(=O)N[C@H](C(=O)O[C@H](C)[C@H](C)c2ccc(F)cc2C)C(C)C)c1O [Example 143] | > 80 | < 0 | < 80 | < 80 |
| COc1ccnc(C(=O)N[C@H](C(=O)O[C@@H](C)[C@@H](C)c2ccc(F)cc2C)C(C)C)c1O [Example 138] | > 80 | > 80 | > 80 | < 80 |
| COc1ccnc(C(=O)N[C@H](C)C(=O)O[C@H](C)[C@H](C)c2ccc(F)cc2C)c1O [Example 153] | < 80 | < 80 | < 80 | < 80 |
| COc1ccnc(C(=O)N[C@@H](C)C(=O)O[C@H](C)[C@@H](C)c2ccc(F)cc2C)c1O [Example 134] | < 80 | < 80 | < 80 | < 80 |
| COc1ccnc(C(=O)N[C@H](C(=O)O[C@@H](C)[C@@H](C)c2ccc(F)cc2)C(C)C)c1O [Example 141] | > 80 | < 80 | > 80 | < 80 |
| COc1ccnc(C(=O)N[C@@H](C)C(=O)OC(C)C(C)c2c(C)cccc2C)c1O (some centres unmarked) [Example 164] | > 80 | > 80 | < 80 | > 80 |
| COc1ccc([C@@H](C)[C@@H](C)OC(=O)[C@@H](NC(=O)c2nccc(OC)c2O)C(C)C)c(C)c1 [Example 147] | > 80 | < 80 | > 80 | < 80 |
| COc1ccccc1[C@H](C)[C@H](C)OC(=O)[C@H](C)NC(=O)c1nccc(OC)c1O [Example 170] | > 80 | > 80 | < 80 | < 80 |
| COc1ccnc(C(=O)NCC(=O)O[C@@H](C)[C@@H](C)c2ccc(F)cc2C)c1O [Example 118] | > 80 | > 80 | < 0 | < 80 |
| COc1ccnc(C(=O)N[C@H](C(=O)O[C@H](C)[C@@H](C)c2ccccc2C)C(C)C)c1O [Example 145] | < 80 | < 80 | < 80 | < 80 |
| COc1ccnc(C(=O)N[C@@H](C)C(=O)O[C@@H](C)[C@@H](C)c2ccc(C)s2)c1O [Example 172] | < 80 | > 80 | < 80 | < 80 |
| COc1ccnc(C(=O)N[C@@H](C)C(=O)O[C@@H](C)[C@@H](C)c2ccccc2)c1O [Example 171] | > 80 | > 80 | < 80 | < 80 |
| COc1ccnc(C(=O)N[C@H](C)C(=O)O[C@H](C)[C@@H](C)c2ccccc2C)c1O [Example 155] | < 80 | < 80 | < 80 | < 80 |
